Structures can show the parent of a compound that is named as a salt. Where two headings read alike, the source gives them in different places.
Columns and labels:
[1] = biological target: T1, BCL-XL (Homo sapiens, UniProt Q07817); experiment: Protein-protein interaction assay BCL-XL/Bad BH3 peptide (BCL-XL assay), TR-FRET; format: binding; settings: His-BCL-XL / Bad BH3-derived peptide
T1 construct: BCL-XL (amino acids 1-212, C-terminal fused to a hexahistidine (6×His) tag); purchased BPS Bioscience (San Diego, Calif., USA); host or cells: E. coli
Protocol: Protein-Protein Interaction Assay: BCL-XL/Bad BH3 Peptide (BCL-XL Assay)
The dose-dependent inhibition by the compounds described in this invention of the interaction between […] and the BH3 domain of Bad (both human) was determined using a steady state binding competition assay with time-resolved fluorescence energy transfer (TR-FRET) readout. For that purpose BCL-2 (amino acids 1-211, C-terminal fused to a hexahistidine (6×His) tag (SEQ ID NO: 3) and a synthetic Bad BH3-derived peptide of sequence Biotin-PEG2-PEG2-NLWAAQRYGRELRR-NIe-SDEFVDSFKK-amide (SEQ ID NO: 2) served as protein receptor and tracer ligand respectively. The recombinant BCL-2 protein (expressed in E. coli) was purchased from BPS Bioscience (San Diego, Calif., USA). The Bad BH3-derived peptide can be obtained from e.g. Biosyntan (Berlin, Germany).
In the assay 11 different concentrations of each compound (0.1 nM, 0.33 nM, 1.1 nM, 3.8 nM, 13 nM, 44 nM, 0.15 μM, 0.51 μM, 1.7 μM, 5.9 μM and 20 μM) were typically measured as duplicates in the same microtiter plate. For that, 100-fold concentrated DMSO solutions were prepared by serial dilutions (1:3.4) of a 2 mM stock solution in a clear, 384-well microtiter plate (Greiner Bio-One, Frickenhausen, Germany). From there, 50 nl were transferred in a dark test plate (Greiner Bio-One. Frickenhausen, Germany). The assay was initiated by addition of 2 μl of a 2,5-fold concentrated Hs-BCL-XL solution (usually for a 1 nM end concentration in 5 μl reaction volume) in aqueous assay buffer [50 mM Tris/HCl pH 7, 100 mM sodium chloride (NaCl), 50 mM potassium fluoride (KF), 0.005% Tween-20, 2 mM DTT, 0.1% bovine gamma globulin (BGG)] to the compounds in the assay plate. This was followed by a 10-minute incubation step at 22° C. for pre-equilibration of the putative complex between His-BCL-XL and the compounds.
The mixture was incubated in the dark for one hour at 22° C. and then overnight at 4° C. The formation of BCL-XL/Bad complexes was determined by measuring the resonance energy transfer of the anti-His- Eu-cryptate antibody to the streptavidin-XL665 present in the reaction. For that purpose, the fluorescence emission at 620 nm and 665 nm after excitation at 330-350 nm was measured in a TR-FRET measuring instrument, for instance a Rubystar or a Pherastar (both from BMG Lab Technologies, Offenburg, Germany) or a Viewlux (Perkin-Elmer). The ratio of the emission at 665 nm and at 622 nm was used as indicator of the amount of BCL-XL/Bad complexes present.
The resulting data (ratio) were normalized, taking 0% inhibition as the mean value of control measurements (usually 32 data points) where all reagents were included. In this case 50 nl DMSO were used instead of compounds. A 100% inhibition corresponded to the mean value of control measurements (usually 32 data points) where all reagents except BCL-XL were included. IC50 values were determined by regression analysis based on a 4 parameter equation (minimum, maximum, IC50, Hill; Y=Max+(Min−Max)/(1+(X/IC50)^Hill) using the Screener Software (Genedata).

[2] = system: A2780; experiment: Anti-proliferative effect (CellTiter-Glo, 72 h), A2780; format: cell-based; settings: Homo sapiens, A2780, 72 h, A2780 cells, median, read-out: IC50 antiproliferation assay A2780 [M] (median)
How it was run: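 Plate cells alongside a separate day 0 reference plate. Read the reference plate at once with CellTiter-Glo. Incubate treated cells 72 h at 37 °C, then read them the same way by luminescence.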

[3] = system: SUDHL5; experiment: Induction of cytotoxicity (CellTiter-Glo, 5 h), SUDHL5
[4] = Homo sapiens, SU-DHL-5, 5 h, read-out: Cytotox SUDHL5 [M] (median), SUDHL5 cells, cytotoxicity induction, CellTiter-Glo, 5 h incubation, median
[5] = read-out: Cytotox SUDHL5 [M] (median), SUDHL5 cells, cytotoxicity induction, CellTiter-Glo, 5 h incubation, median

T1 sequence (Q07817 1-212): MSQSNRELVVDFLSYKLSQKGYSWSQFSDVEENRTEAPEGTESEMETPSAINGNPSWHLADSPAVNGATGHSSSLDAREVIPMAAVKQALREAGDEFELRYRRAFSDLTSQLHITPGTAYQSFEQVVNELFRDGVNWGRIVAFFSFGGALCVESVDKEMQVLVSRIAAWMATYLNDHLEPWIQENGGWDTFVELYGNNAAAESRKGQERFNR

Row | Compound | IC50 [1] [µM] | IC50 [2] [M] | IC50 [3, 4] [M] | IC50 [3, 5] [M]
1 | CC(C)c1c2c(nn1C)CN(C)CCCn1c(C(=O)O)c(CCCOc3cccc4ccccc34)c3cccc-2c31 (racemic) [Example 113, (rac)-7,10-dimethyl-1-[3-(naphthalen-1-yloxy)propyl]-11-(propan-2-yl)-4,5,6,7,8,10-hexahydropyrazolo[3′,4′:7,8][1,5]diazecino[9,10,1-hi]indole-2-carboxylic Acid] | > 20 | 8.81e-06 | 6.84e-06 | 
2 | CCc1c2c(nn1C)CN(C)CCCn1c(C(=O)O)c(CCCOc3cccc4ccccc34)c3cccc-2c31 (racemic) [Example 141, (rac)-11-ethyl-7,10-dimethyl-1-[3-(1-naphthyloxy)propyl]-4,5,6,7,8,10-hexahydropyrazolo[3′,4′:7,8][1,5]diazecino[9,10,1-hi]indole-2-carboxylic Acid] | > 20 | 1.48e-05 | 3.66e-06 | 
3 | CCc1c2c(nn1C)CN(C)CCCn1c(C(=O)O)c(CCCOc3cccc4ccccc34)c3ccc(C)c-2c31 (racemic) [Example 144, (rac)-11-ethyl-7,10,12-trimethyl-1-[3-(1-naphthyloxy)propyl]-4,5,6,7,8,10-hexahydropyrazolo[3′,4′:7,8][1,5]diazecino[9,10,1-hi]indole-2-carboxylic Acid] | > 20 | 1.17e-05 | 2.55e-06 | 
4 | CC(C)OCc1nn(C)c2c1-c1cccc3c(CCCOc4cccc5ccccc45)c(C(=O)O)n(c13)CCCCN(C)C2 (single isomer, unassigned) [Example 1-74, 1,14-dimethyl-7-[3-(naphthalen-1-yloxy)propyl]-3-[(propan-2-yloxy)methyl]-10,11,12,13,14,15-hexahydro-1H-pyrazolo[3′,4′:8,9][1,6]diazacycloundecino[10,11,1-hi]indole-8-carboxylic Acid] | > 20 | 1.91e-05 |  | 9.82e-06
5 | CN1CCCn2c(C(=O)O)c(CCCOc3cccc4ccccc34)c3cccc(c32)-c2c(COc3ccc(N4CCN(S(=O)(=O)N(C)C)CC4)cc3)nn(C)c2C1 (single isomer, unassigned; enantiomer 1) [Example 1-15, (+)-11-({4-[4-(dimethylsulfamoyl)piperazin-1-yl]phenoxy}methyl)-7,9-dimethyl-1-[3-(naphthalen-1-yloxy)propyl]-4,5,6,7,8,9-hexahydropyrazolo[3′,4′:7,8][1,5]diazecino[9,10,1-hi]indole-2-carboxylic Acid (Enantiomer 1)] | > 20 | 7.24e-06 |  | 1.38e-06
6 | Cn1nc(COc2ccc(N3CCN(C(=O)C4CC4)CC3)cc2)c2c1COCCCCn1c(C(=O)O)c(CCCOc3cccc4ccccc34)c3cccc-2c31 (single isomer, unassigned; enantiomer 1) [Example 1-22, 3-({4-[4-(cyclopropylcarbonyl)piperazin-1-yl]phenoxy}methyl)-1-methyl-7-[3-(naphthalen-1-yloxy)propyl]-1,10,11,12,13,15-hexahydropyrazolo[4′,3′:9,10][1,6]oxazacycloundecino[8,7,6-hi]indole-8-carboxylic Acid (Enantiomer 1)] | > 20 | 1.83e-05 |  | 1.37e-06
7 | Cc1nn(C)c2c1-c1cccc3c(CCCOc4cccc5ccccc45)c(C(=O)O)n(c13)CCCN(C)C2 (single isomer, unassigned; enantiomer 1) [Example 1-31, 7,9,11-trimethyl-1-[3-(naphthalen-1-yloxy)propyl]-4,5,6,7,8,9-hexahydropyrazolo[3′,4′:7,8][1,5]diazecino[9,10,1-hi]indole-2-carboxylic Acid-N-ethylethanamine Salt (Enantiomer 1)] | > 20 | > 3.3e-05 |  | 4.6e-06
8 | CN1CCCn2c(C(=O)O)c(CCCOc3cccc4ccccc34)c3cccc(c32)-c2c(CN3CCOCC3)nn(C)c2C1 (single isomer, unassigned; enantiomer 1) [Example 1-43, (+)-7,9-dimethyl-11-(morpholin-4-ylmethyl)-1-[3-(naphthalen-1-yloxy)propyl]-4,5,6,7,8,9-hexahydropyrazolo[3′,4′:7,8][1,5]diazecino[9,10,1-hi]indole-2-carboxylic Acid (Enantiomer 1)] | > 20 | 2.48e-05 | 6.9e-06 | 
9 | COCc1nn(C)c2c1-c1cccc3c(CCCOc4cccc5ccccc45)c(C(=O)O)n(c13)CCCN(C)C2 (single isomer, unassigned; enantiomer 2) [Example 1-104, 11-(methoxymethyl)-7,9-dimethyl-1-[3-(1-naphthyloxy)propyl]-4,5,6,7,8,9-hexahydropyrazolo[3′,4′:7,8][1,5]diazecino[9,10,1-hi]indole-2-carboxylic Acid (Enantiomer 2)] | > 20 |  |  | 7.21e-06

More lines, main results first:

Row | IC50 [1] [µM] | IC50 [2] [M] | Compound | IC50 [3, 4] [M] | IC50 [3, 5] [M]
10 | > 20 | > 3.3e-05 | Cc1c2c(nn1C)COCCCCn1c(C(=O)O)c(CCCOc3cccc4ccccc34)c3cccc-2c31 (racemic) [Example 1-36, (rac)-2,3-dimethyl-7-[3-(naphthalen-1-yloxy)propyl]-2,10,11,12,13,15-hexahydropyrazolo[4′,3′:9,10][1,6]oxazacycloundecino[8,7,6-hi]indole-8-carboxylic Acid] | 3.69e-06 | 
11 | > 20 | > 3.3e-05 | Cc1nn(C)c2c1-c1cccc3c(CCCOc4cccc5ccccc45)c(C(=O)O)n(c13)CCCCOCC2 (racemic) [Example 017, (rac)-1,3-dimethyl-7-[3-(1-naphthyloxy)propyl]-10,11,12,13,15,16-hexahydro-1H-pyrazolo[4′,3′:9,10][1,6]oxazacyclododecino[8,7,6-hi]indole-8-carboxylic Acid] | 1.36e-05 | 
12 | > 20 | 2.14e-05 | Cc1ccc2c(CCCOc3cccc4c3CCCC4)c(C(=O)O)n3c2c1-c1c(C)nn(C)c1COCCCC3 (racemic) [Example 039, (rac)-1,3,4-trimethyl-7-[3-(5,6,7,8-tetrahydronaphthalen-1-yloxy)propyl]-110,11,12,13,15-hexahydropyrazolo[4′3′:9,10][1,6]oxazacycloundecino[8,7,6-hi]indole-8-carboxylic Acid] | 8.59e-06 | 
13 | > 20 | 1.52e-05 | CCc1c2c(nn1C)COCCCCn1c(C(=O)O)c(CCCOc3cccc4ccccc34)c3ccc(C)c-2c31 (racemic) [Example 153, (rac)-3-Ethyl-2,4-dimethyl-7-[3-(1-naphthyloxy)propyl]-2,10,11,12,13,15-hexahydropyrazolo[4′,3′:9,10][1,6]oxazacycloundecino[8,7,6-hi]indole-8-carboxylic Acid] | 1.65e-06 | 
14 | > 20 | 3.02e-05 | Cc1c2c(nn1C)COCCCCn1c(C(=O)O)c(CCCOc3cccc4ccccc34)c3cccc-2c31 (single isomer, unassigned; enantiomer 1) [Example 1-37, (+)-2,3-dimethyl-7-[3-(naphthalen-1-yloxy)propyl]-2,10,11,12,13,15-hexahydropyrazolo[4′,3′:9,10][1,6]oxazacycloundecino[8,7,6-hi]indole-8-carboxylic Acid (Enantiomer 1)] |  | 1.92e-06

Source: patent US10981932B2, “Macrocyclic indole derivatives” (Bayer Aktiengesellschaft, priority 2016, dated 2021)
